From PMC7039992, “The structural basis of fungal glucuronoyl esterase activity on natural substrates” (Nature Communications, 2020) come the findings set out here.

Where “and” joins values, the source holds several entries; their conditions need not be identical. Identical values can stand only once.

In series [1] the target is T1, dΔS270A CuGE (inactive truncated deglycosylated variant) (Cerrena unicolor, UniProt A0A0A7EQR3, S286A).
T1 construct: truncated CuGE (residues G79-T458) corresponding to the catalytic domain only; His6 (C); TEV protease cleavage site (C); made in house; host or cells: Pichia pastoris X-33
Put plainly: Microscale thermophoresis (MST, LabelFree) binding of soluble ligands to dΔS270A. On the procedure:
(§1) Binding affinities for the soluble ligands U^m4XX^-OH (O-UXXR, MEGAZYMES), MeGlcA (4-O-methyl-D-glucuronic acid, MM46686, Carbosynth, Crompton UK), and MeMeGlcA (4-O-methyl-D-glucopyranosyluronate, purchased from Institute of Chemistry, Slovak Academy of Sciences, Bratislava, Slovakia) were measured by MST. The protein stocks, dΔS207A and ΔWT, were adjusted to 200 nM with 100 mM sodium acetate buffer pH 5 supplemented with 0.1% Pluronic F-127. Ligand stocks (100 mM U^m4XX^-OH, 43 mM MeGlcA and 250 mM MeMeGlcA) were prepared in 100 mM sodium acetate buffer pH 5, and for each ligand a series of 16 1:1 dilutions was prepared using the same buffer. For the measurement, each ligand dilution was mixed with one volume of protein, which led to a final protein concentration of 100 nM and final ligand concentrations in the mM to nM range. After 10 min incubation followed by centrifugation at 10,000 × g for 10 min, the samples were loaded into Monolith NT.LabelFree zero-background capillaries (NanoTemper Technologies). The MST experiment was performed with a Monolith NT.LabelFree instrument (NanoTemper Technologies) at 25 °C using 30% LED power and medium MST power. […] Final ligand concentration ranges used in the analysis of the MST signal were: U^m4XX^-OH 25 mM to 1.53 μM, MeGlcA 10.8 mM to 656 nM and MeMeGlcA 15.6 mM to 3.81 μM. For each ligand-binding curve, data from at least three independently pipetted measurements were included in the analysis with the MO. Affinity Analysis software (version 2.3, NanoTemper Technologies) using the signal from an MST-on time of 5 s.
(In MST a laser heats a spot of the sample, and binding alters the fluorescence response.)

Series [2] deals with T2, ΔWT CuGE (truncated, catalytic domain only) (Cerrena unicolor, UniProt A0A0A7EQR3).
T2 construct: truncated CuGE (residues G79-T458) corresponding to the catalytic domain only; His6 (C); TEV protease cleavage site (C); made in house; host or cells: Pichia pastoris X-33
Put plainly: Microscale thermophoresis (MST, LabelFree) binding of soluble ligands to ΔWT. The note with it: for Fnorm Average: MST. On the procedure:
as §1

The test system of series [3] is CuGE catalytic domain crystals. Put plainly: Crystal soaking with ligands. Type of series: binding, Cerrena unicolor. The note with it: concentrations up to 0.5 M. On the procedure:
The deglycosylated CuGE variants dWT and dΔS207A were both screened for crystallization. However, all crystals obtained contain the catalytic domain only, as crystals formed in experiments with the full-length enzyme (dWT) turned out to be a proteolytic fragment lacking the CBM1 and linker region (Δ*dWT). […] Crystallization and ligand soak conditions are summarized in Supplementary Table 1. The vast majority of crystals formed at 4 °C and with high molecular weight polymers (SOKALAN CP7, PEG 10,000 or PEG 8000) as precipitants. Crystals were cryoprotected by brief soaks in either reservoir or ligand stock solutions supplemented with 26% glycerol and flash-frozen in liquid nitrogen. […] A refinement protocol using the maximum-likelihood target, real-space refinement, refinement of coordinates, individual isotropic temperature factors and translation-liberation-screw (TLS) refinement using TLS groups determined by the PHENIX software was applied. […]

Series [4] can be described thus: Stability measurements: apparent thermal unfolding temperature (Ti) from intrinsic fluorescence, Tycho NT.6. Type of series: physicochemical, Cerrena unicolor. As to conditions: 20 mM sodium acetate buffer pH 5. The method, then:
In order to evaluate the stability of the different CuGE variants apparent unfolding temperatures (Ti) were monitored based on changes in intrinsic fluorescence using a Tycho NT.6 instrument (NanoTemper Technologies). The measurements were made in 20 mM sodium acetate buffer pH 5, protein concentrations in the range 0.07–0.3 mg mL^−1.

As a reminder, the Kd is the equilibrium constant for the complex coming apart. Read a high Kd as weaker binding. Consider `CO[C@H]1[C@H](O)[C@@H](O)[C@@H](O[C@H]2[C@H](O[C@@H]3CO[C@@H](O[C@H](CO)[C@H](O)[C@@H](O)CO)[C@H](O)[C@H]3O)OC[C@@H](O)[C@@H]2O)O[C@@H]1C(=O)O` [U^m4XX^-OH, aldotetrauronic acid], for which the “Fnorm Average” value in series [1] (MST, ligand Conc 1.52588e-6 M) came out at 893.61; in series [1] (MST, ligand Conc 3.05176e-6 M) it was 893.69; in series [1] (MST, ligand Conc 6.10352e-6 M), 893.20; in series [1] (MST, ligand Conc 1.2207e-5 M), 894.05; in series [1] (MST, ligand Conc 2.44141e-5 M), 893.89; in series [1] (MST, ligand Conc 4.88281e-5 M), 895.55. For the same molecule, the “Fnorm Average” value in series [1] (MST, ligand Conc 9.76563e-5 M) is 898.89; in series [1] (MST, ligand Conc 0.000195313 M) it was 901.02; in series [1] (MST, ligand Conc 0.000390625 M), 904.70; in series [1] (MST, ligand Conc 0.00078125 M), 908.26; in series [1] (MST, ligand Conc 0.0015625 M), 908.91; in series [1] (MST, ligand Conc 0.003125 M), 910.47. For the same molecule, the “Fnorm Average” value in series [1] (MST, ligand Conc 0.00625 M) was 911.05; in series [1] (MST, ligand Conc 0.0125 M) it was 912.09; in series [1] (MST, ligand Conc 0.025 M), 909.72; in series [2] (ligand Conc 1.52588e-6 M), 893.29; in series [2] (ligand Conc 3.05176e-6 M), 893.55; in series [2] (ligand Conc 6.10352e-6 M), 893.63. For the same molecule, the “Fnorm Average” value in series [2] (ligand Conc 1.2207e-5 M) was determined as 892.18; in series [2] (ligand Conc 2.44141e-5 M), 892.73; in series [2] (ligand Conc 4.88281e-5 M) it was 894.37; in series [2] (ligand Conc 9.76563e-5 M) it was 893.73; in series [2] (ligand Conc 0.000195313 M), 893.94; in series [2] (ligand Conc 0.000390625 M), 894.62. For the same molecule, the “Fnorm Average” value is 893.24 in series [2] (ligand Conc 0.00078125 M); 896.88 in series [2] (ligand Conc 0.0015625 M); 900.40 in series [2] (ligand Conc 0.003125 M); 905.36 in series [2] (ligand Conc 0.00625 M); 907.85 in series [2] (ligand Conc 0.0125 M); 907.66 in series [2] (ligand Conc 0.025 M). In series [2], this molecule yielded a Kd of 5 mM.
In series [1], `COC(=O)[C@H]1OC(O)[C@H](O)[C@@H](O)[C@@H]1OC` (stereo partly drawn) [MeMeGlcA, methyl ester of 4-O-methyl-D-glucuronic acid] displayed a Kd of over 10 mM. Also, the “Fnorm Average” value in series [1] (MST, ligand Conc 3.8147e-6 M) came out at 893.87; in series [1] (MST, ligand Conc 7.62939e-6 M), 892.81; in series [1] (MST, ligand Conc 1.52588e-5 M) it was 893.60; in series [1] (MST, ligand Conc 3.05176e-5 M) it was 893.00; in series [1] (MST, ligand Conc 6.10352e-5 M) it was 891.24; in series [1] (MST, ligand Conc 0.00012207 M) it was 892.80. In addition, the “Fnorm Average” value was 892.27 in series [1] (MST, ligand Conc 0.000244141 M); 892.23 in series [1] (MST, ligand Conc 0.000488281 M); 892.05 in series [1] (MST, ligand Conc 0.000976562 M); 893.14 in series [1] (MST, ligand Conc 0.00195312 M); 894.69 in series [1] (MST, ligand Conc 0.00390625 M); 894.83 in series [1] (MST, ligand Conc 0.0078125 M). Also, the “Fnorm Average” value in series [1] (MST, ligand Conc 0.015625 M) is 899.63. Also, the “complex formation on crystal soak” value in series [3] is “did not result in a complex”.
Regarding `CO[C@@H]([C@H](O)[C@@H](O)C=O)[C@H](O)C(=O)O` [MeGlcA, 4-O-methyl-D-glucuronic acid], the “dissociation constant, times higher compared to dΔS270A:U^m4XX^-OH” value in series [1] (MST) is ~ 10 times. Besides, the “Fnorm Average” value in series [1] (MST, ligand Conc 6.56128e-7 M) amounted to 892.97; in series [1] (MST, ligand Conc 1.31226e-6 M), 893.37; in series [1] (MST, ligand Conc 2.62451e-6 M) it was 892.22; in series [1] (MST, ligand Conc 5.24902e-6 M), 893.19; in series [1] (MST, ligand Conc 1.0498e-5 M), 892.96; in series [1] (MST, ligand Conc 2.09961e-5 M), 892.61. The “Fnorm Average” value in series [1] (MST, ligand Conc 4.19922e-5 M) is given as 895.02; in series [1] (MST, ligand Conc 8.39844e-5 M), 893.94; in series [1] (MST, ligand Conc 0.000167969 M), 894.55; in series [1] (MST, ligand Conc 0.000335937 M) it was 893.65; in series [1] (MST, ligand Conc 0.000671875 M), 895.68; in series [1] (MST, ligand Conc 0.00134375 M), 895.81. Besides, the “Fnorm Average” value in series [1] (MST, ligand Conc 0.0026875 M) is on record as 897.59; in series [1] (MST, ligand Conc 0.005375 M) it was 898.85; in series [1] (MST, ligand Conc 0.01075 M) it was 901.30.

B1: dWT: enzymatically deglycosylated full-length WT CuGE (protein)
chain: QASAPQWGQCGGIGWTGPTACPSGWACQQLNAYYSQCLQGAAPAPARTTAAPPPPPATTAAPPPPTTSAPTGSSPVAGACGAIASTVPNYNNAKLPDPFTFANGTALRTKADWSCRRAEISALIQNYEAGTLPPKPPVVTASFSKSGNTGTLAITAGLSNSQTIKFSPTISYPSGTPPANGWPLIIAYEGGSIPIPAGVATLTYSNSDMAQQNSASSRGQGLFYQLYGSTHSASAMTAWVWGVSRIIDALEMTPTAQINTQRIGVTGCSRDGKGALMAGAFEERIALTIPQESGSGGDACWRLSKYEIDNGNQVQDAVEIVGENVWFSTNFNNYVQKLPTVPEDHHLLAAMVAPRAMISFENTDYLWLSPMSSFGCMTAAHTVWQGLGIADSHGFAQVGGHAHCAWPSSLTPQLNAFINRFLLDQSATTNVFTTNNQFGKVQWNAANWITWTTPTLT
modifications: N-glycosylation at N104 trimmed with Endo H; O-glycosylation in the linker region trimmed with alpha-1-2,3,6 mannosidase; left off: c-myc epitope, C-terminal, state not stated | His6, C-terminal, stat
notes: enzymatically deglycosylated full-length WT CuGE
On to B1, for which the “Ti, single measurements” value in series [4] (individual replicates) was 75.9 °C and 75.7 °C and 75.8 °C. The “Ti, apparent thermal unfolding temperature (mean)” value in series [4] (protein 0.07–0.3 mg mL^−1, intrinsic fluorescence) came to 75.8 °C.
